Data on 12 molecules can be found in patent US20070021419A1, “2-Aminophenyl-4-phenylpyrimidines as kinase inhibitors” (Cyclacel Limited, priority 2003, published 2007).

One test deals with CDK1/cyclin B (Homo sapiens, UniProt P06493). Nature of the test: Kinase assay, radioactive phosphate incorporation, CDK1/cyclin B. The test is classed as biochemical. The conditions noted are these: 100 μM ATP, 30° C.; read-out: Kinase inhibition IC50 CDK1/cyclin B. How it is done:
(§1) The compounds from the examples above were investigated for their ability to inhibit the enzymatic activity of various protein kinases. This was achieved by measurement of incorporation of radioactive phosphate from ATP into appropriate polypeptide substrates. Recombinant protein kinases and kinase complexes were produced or obtained commercially. Assays were performed using 96-well plates and appropriate assay buffers (typically 25 mM β-glycerophosphate, 20 mM MOPS, 5 MM EGTA, 1 mM DTT, 1 mM Na3VO3, pH 7.4), into which were added 2-4 μg of active enzyme with appropriate substrates. The reactions were initiated by addition of Mg/ATP mix (15 mM MgCl2+100 μM ATP with 30-50 kBq per well of [γ-^32P]-ATP) and mixtures incubated as required at 30° C. Reactions were stopped on ice, followed by filtration through p81 filterplates or GF/C filterplates (Whatman Polyfiltronics, Kent, UK). After washing 3 times with 75 mM aq orthophosphoric acid, plates were dried, scintillant added and incorporated radioactivity measured in a scintillation counter (TopCount, Packard Instruments, Pangbourne, Berks, UK). Compounds for kinase assay were made up as 10 mM stocks in DMSO and diluted into 10% DMSO in assay buffer.

Another test concerns the target CDK2/cyclin A (Homo sapiens, UniProt P24941). As to the kind of experiment: Kinase assay, radioactive phosphate incorporation, CDK2/cyclin A. The test is classed as biochemical. The conditions noted are these: 100 μM ATP, 30° C.; read-out: Kinase inhibition IC50 CDK2/cyclin A. How it is done:
as §1

The target in another test is CDK2/cyclin E (Homo sapiens, UniProt P24941). As to the kind of experiment: Kinase assay, radioactive phosphate incorporation, CDK2/cyclin E. In kind it is biochemical. The following applies: 100 μM ATP, 30° C.; read-out: Kinase inhibition IC50 CDK2/cyclin E. In outline:
(§2)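 Steps: enzyme (2-4 μg) plus substrate in pH 7.4 buffer with DTT and vanadate; start with 100 μM ATP/15 mM MgCl2 containing [γ-32P]-ATP; incubate at 30° C; stop on ice; filter, wash with 75 mM orthophosphoric acid; scintillation count. Compounds diluted from DMSO stocks into 10% DMSO buffer.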

A further test addresses CDK4/cyclin D1 (Homo sapiens, UniProt P11802). Nature of the test: Kinase assay, radioactive phosphate incorporation, CDK4/cyclin D1. In kind it is biochemical. The conditions noted are these: 100 μM ATP, 30° C.; read-out: Kinase inhibition IC50 CDK4/cyclin D1. How it is done: as §1
Another test deals with CDK7/cyclin H (Homo sapiens, UniProt P50613). Nature of the test: Kinase assay, radioactive phosphate incorporation, CDK7/cyclin H. The test is classed as biochemical. The conditions noted are these: 100 μM ATP, 30° C.; read-out: Kinase inhibition IC50 CDK7/cyclin H. In outline:
as §2

The target of a further test is CDK9/cyclin T1 (Homo sapiens, UniProt P50750). As to the kind of experiment: Kinase assay, radioactive phosphate incorporation, CDK9/cyclin T1. In kind it is biochemical. The following applies: 100 μM ATP, 30° C.; read-out: Kinase inhibition IC50 CDK9/cyclin T1. In outline:
as §2

A further test concerns the target GSK3β (Homo sapiens, UniProt P49841). Nature of the test: Kinase assay, radioactive phosphate incorporation, GSK3β. In kind it is biochemical. The conditions noted are these: 100 μM ATP, 30° C.; read-out: Kinase inhibition IC50 GSK3β. In outline: as §2
The subject of the next test is A549. As to the kind of experiment: 72-h MTT cytotoxicity assay, A549. The following applies: Homo sapiens, read-out: 72-h MTT IC50 A549, A549 cell line. In kind it is cell-based. In outline: (§3)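 Triplicate cultures, plated by doubling time, are treated 72 h at 37° C with compounds diluted 1/3 stepwise; after PBS washing, MTT (stock 5 mg/mL) is applied 4 h without light, then DMSO dissolves the formazan.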

In a further test the test system is HT29. As to the kind of experiment: 72-h MTT cytotoxicity assay, HT29. The conditions noted are these: Homo sapiens, HT-29, read-out: 72-h MTT IC50 HT29, HT29 cell line. In kind it is cell-based. In outline: as §3
The subject of the next test is Saos-2. Nature of the test: 72-h MTT cytotoxicity assay, Saos-2. In kind it is cell-based. The conditions noted are these: Homo sapiens, read-out: 72-h MTT IC50 Saos-2, Saos-2 cell line. In outline:
as §3
(In general: Tetrazolium dyes change colour on reduction, which living cells bring about.)

In test [1] the test system is transformed human cell lines (A549, HT29, Saos-2). Nature of the test: 72-h MTT cytotoxicity assay, average of cell lines. In kind it is cell-based. The following applies: read-out: 72-h MTT IC50 Average, average of A549, HT29, Saos-2. In outline: as §3

Bounds are passed on as bounds.

Sequence of CDK7/cyclin H (P50613 whole entry, species assumed): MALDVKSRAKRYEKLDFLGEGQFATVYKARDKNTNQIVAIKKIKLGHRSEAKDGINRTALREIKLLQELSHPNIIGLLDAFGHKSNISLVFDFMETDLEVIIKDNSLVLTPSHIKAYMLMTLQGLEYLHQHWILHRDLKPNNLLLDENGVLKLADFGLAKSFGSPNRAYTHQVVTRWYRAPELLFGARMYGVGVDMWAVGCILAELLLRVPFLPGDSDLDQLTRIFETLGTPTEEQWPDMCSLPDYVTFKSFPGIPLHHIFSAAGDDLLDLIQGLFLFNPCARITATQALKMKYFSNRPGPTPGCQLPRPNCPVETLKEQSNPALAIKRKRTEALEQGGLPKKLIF
Sequence of CDK7/cyclin H (P51946 whole entry partner, species assumed): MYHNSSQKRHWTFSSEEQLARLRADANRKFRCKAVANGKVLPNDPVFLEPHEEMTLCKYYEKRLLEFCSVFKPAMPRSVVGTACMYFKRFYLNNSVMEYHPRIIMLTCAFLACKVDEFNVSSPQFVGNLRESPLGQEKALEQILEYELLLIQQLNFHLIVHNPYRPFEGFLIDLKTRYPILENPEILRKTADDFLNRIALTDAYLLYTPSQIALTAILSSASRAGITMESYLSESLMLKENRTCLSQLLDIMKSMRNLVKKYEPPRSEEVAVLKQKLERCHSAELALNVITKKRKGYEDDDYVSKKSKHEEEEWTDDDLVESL
Sequence of GSK3β (P49841 whole entry, species assumed): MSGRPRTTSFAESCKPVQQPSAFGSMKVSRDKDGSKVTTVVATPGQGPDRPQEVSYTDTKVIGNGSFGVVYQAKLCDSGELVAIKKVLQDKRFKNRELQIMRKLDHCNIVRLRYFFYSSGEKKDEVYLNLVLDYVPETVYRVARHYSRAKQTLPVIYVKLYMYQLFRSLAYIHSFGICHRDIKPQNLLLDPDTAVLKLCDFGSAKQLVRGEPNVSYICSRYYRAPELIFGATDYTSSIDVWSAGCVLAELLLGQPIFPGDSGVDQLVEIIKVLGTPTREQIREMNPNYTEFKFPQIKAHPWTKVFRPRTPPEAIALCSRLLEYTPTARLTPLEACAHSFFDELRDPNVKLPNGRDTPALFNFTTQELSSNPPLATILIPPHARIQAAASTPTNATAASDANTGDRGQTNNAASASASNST
Sequence of CDK1/cyclin B (P06493 whole entry, species assumed): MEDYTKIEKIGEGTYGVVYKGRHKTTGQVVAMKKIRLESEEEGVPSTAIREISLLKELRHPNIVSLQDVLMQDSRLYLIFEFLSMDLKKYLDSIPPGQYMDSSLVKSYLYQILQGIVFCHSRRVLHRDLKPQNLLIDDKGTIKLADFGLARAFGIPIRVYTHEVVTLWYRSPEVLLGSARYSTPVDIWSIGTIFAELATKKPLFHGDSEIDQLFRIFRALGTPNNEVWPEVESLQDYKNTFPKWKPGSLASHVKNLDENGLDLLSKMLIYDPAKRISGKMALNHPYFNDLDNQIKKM
Sequence of CDK1/cyclin B (P14635 whole entry partner, species assumed): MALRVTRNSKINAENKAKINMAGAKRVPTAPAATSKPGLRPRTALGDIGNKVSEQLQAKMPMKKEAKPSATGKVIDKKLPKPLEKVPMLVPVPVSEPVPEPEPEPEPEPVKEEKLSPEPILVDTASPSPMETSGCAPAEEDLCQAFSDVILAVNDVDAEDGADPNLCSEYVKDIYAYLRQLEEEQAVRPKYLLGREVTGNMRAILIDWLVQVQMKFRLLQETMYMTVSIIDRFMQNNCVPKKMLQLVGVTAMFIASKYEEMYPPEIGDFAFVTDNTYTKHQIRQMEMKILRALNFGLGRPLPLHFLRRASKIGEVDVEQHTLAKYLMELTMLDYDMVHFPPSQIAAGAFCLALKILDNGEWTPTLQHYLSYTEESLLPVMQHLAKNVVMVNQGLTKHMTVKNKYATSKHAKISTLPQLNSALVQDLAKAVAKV
Sequence of CDK9/cyclin T1 (P50750 whole entry, species assumed): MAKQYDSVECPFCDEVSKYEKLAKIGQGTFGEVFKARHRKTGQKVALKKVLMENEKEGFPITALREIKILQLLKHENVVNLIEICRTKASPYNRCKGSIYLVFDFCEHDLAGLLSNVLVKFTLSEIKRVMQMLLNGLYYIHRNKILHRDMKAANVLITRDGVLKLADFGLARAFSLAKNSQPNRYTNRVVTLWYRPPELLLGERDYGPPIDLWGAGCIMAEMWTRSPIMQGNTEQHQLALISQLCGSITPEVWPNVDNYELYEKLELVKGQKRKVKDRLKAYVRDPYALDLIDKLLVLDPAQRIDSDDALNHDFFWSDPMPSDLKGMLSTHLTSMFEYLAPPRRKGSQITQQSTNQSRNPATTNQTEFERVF
Sequence of CDK9/cyclin T1 (O60563 whole entry partner, species assumed): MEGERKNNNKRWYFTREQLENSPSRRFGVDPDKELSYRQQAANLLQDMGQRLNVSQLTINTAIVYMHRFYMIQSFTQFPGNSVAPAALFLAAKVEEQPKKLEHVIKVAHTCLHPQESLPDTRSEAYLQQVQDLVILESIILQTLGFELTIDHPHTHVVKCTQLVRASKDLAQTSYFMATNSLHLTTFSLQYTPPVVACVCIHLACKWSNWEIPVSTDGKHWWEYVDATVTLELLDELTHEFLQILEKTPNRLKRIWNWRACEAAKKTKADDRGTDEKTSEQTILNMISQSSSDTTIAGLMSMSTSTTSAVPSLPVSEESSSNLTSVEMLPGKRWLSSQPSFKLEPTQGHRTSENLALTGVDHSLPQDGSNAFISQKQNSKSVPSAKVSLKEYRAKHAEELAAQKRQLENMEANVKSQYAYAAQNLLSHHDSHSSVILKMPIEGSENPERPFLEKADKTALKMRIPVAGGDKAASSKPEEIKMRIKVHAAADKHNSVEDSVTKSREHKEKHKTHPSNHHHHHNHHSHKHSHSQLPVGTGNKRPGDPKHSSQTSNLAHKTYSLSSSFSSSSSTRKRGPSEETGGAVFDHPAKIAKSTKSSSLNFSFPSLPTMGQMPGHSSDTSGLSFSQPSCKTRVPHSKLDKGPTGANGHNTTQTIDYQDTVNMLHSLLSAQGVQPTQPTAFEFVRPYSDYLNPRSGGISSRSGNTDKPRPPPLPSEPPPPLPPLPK
Sequence of CDK4/cyclin D1 (P11802 whole entry, species assumed): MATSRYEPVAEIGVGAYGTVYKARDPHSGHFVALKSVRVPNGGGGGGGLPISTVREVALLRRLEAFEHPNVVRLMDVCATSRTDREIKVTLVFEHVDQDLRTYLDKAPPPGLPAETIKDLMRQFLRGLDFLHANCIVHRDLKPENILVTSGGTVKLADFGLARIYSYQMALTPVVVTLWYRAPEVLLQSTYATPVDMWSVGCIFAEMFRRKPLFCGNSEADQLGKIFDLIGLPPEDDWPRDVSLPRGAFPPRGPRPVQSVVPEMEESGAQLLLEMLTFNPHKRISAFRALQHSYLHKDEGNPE
Sequence of CDK4/cyclin D1 (P24385 whole entry partner, species assumed): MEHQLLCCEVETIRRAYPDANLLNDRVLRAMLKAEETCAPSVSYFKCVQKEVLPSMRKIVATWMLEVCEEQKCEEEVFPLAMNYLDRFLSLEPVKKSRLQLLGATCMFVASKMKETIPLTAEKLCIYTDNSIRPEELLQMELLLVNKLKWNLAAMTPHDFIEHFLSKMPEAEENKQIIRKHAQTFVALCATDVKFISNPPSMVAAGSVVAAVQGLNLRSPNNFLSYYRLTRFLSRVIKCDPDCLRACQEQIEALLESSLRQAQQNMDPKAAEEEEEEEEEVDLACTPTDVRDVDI

As to `CN1CCN(Cc2cccc(-c3ccnc(Nc4cccc([N+](=O)[O-])c4)n3)c2)CC1` [Compound 54, {4-[3-(4-Methyl-piperazin-1-ylmethyl)-phenyl]-pyrimidin-2-yl}-(3-nitro-phenyl)-amine], the IC50 on CDK1/cyclin B amounted to 2000 nM; on CDK2/cyclin A, 820 nM; on CDK2/cyclin E it was 300 nM; on CDK4/cyclin D1 it was 4500 nM; on CDK7/cyclin H, 130 nM; on CDK9/cyclin T1 it was 22 nM. The IC50 on GSK3β was determined as 320 nM; with A549, 1100 nM; with HT29, 770 nM; in the test with Saos-2 it was 1300 nM; in test [1], 1100 ± 300 nM.

With `Oc1cccc(Nc2nccc(-c3cccc(Cn4cncn4)c3)n2)c1` [Compound 34, 3-[4-(3-[1,2,4]triazol-1-ylmethyl-phenyl)-pyrimidin-2-ylamino]-phenol], the IC50 on CDK1/cyclin B stood at 7000 nM; on CDK2/cyclin A it was 2400 nM; at CDK2/cyclin E it was 240 nM; at CDK4/cyclin D1 it was 1800 nM; on CDK7/cyclin H, 1200 nM; at CDK9/cyclin T1, 130 nM. For the same molecule, the IC50 stood at 41 nM on GSK3β; 4100 nM with A549; 8300 nM in the test on HT29; 3700 nM with Saos-2; 5400 ± 2500 nM in test [1].

In the case of `CCNc1cccc(-c2ccnc(Nc3ccc(OC)cc3)n2)c1` [Compound 25, [4-(3-Ethylamino-phenyl)-pyrimidin-2-yl]-(4-methoxy-phenyl)-amine], the IC50 came out at 170 nM at CDK1/cyclin B; 30 nM at CDK2/cyclin A; 39 nM on CDK2/cyclin E; 170 nM on CDK4/cyclin D1; 940 nM at CDK7/cyclin H; 5 nM on CDK9/cyclin T1. Further, the IC50 at GSK3β stood at 140 nM.

In the case of `O=[N+]([O-])c1cccc(Nc2nccc(-c3cccc(Cn4ccnc4)c3)n2)c1` [Compound 29, [4-(3-Imidazol-1-ylmethyl-phenyl)-pyrimidin-2-yl]-(3-nitro-phenyl)-amine], the IC50 on CDK1/cyclin B was found to be 2200 nM; on CDK2/cyclin A, 5100 nM; on CDK2/cyclin E, 140 nM; at CDK4/cyclin D1, 62000 nM; at CDK7/cyclin H, 71 nM; on CDK9/cyclin T1, 44 nM. Moreover, the IC50 on GSK3β came out at 50 nM; in the test on A549, 3600 nM; in the test with HT29, 1800 nM; in the test on Saos-2 it was 4500 nM; in test [1], 3300 ± 1400 nM.

Regarding `O=[N+]([O-])c1cccc(Nc2nccc(-c3cccc(CN4CCCC(CCO)C4)c3)n2)c1` (centres unmarked) [Compound 100, 2-(1-{3-[2-(3-Nitro-phenylamino)-pyrimidin-4-yl]-benzyl}-piperidin-3-yl)-ethanol], the IC50 is 1200 nM at CDK1/cyclin B; 580 nM at CDK2/cyclin A; 60 nM on CDK2/cyclin E; 3400 nM on CDK4/cyclin D1; 70 nM at CDK7/cyclin H; 2 nM at CDK9/cyclin T1. Moreover, the IC50 on GSK3β came to 20 nM; in the test with A549 it was 560 nM; with HT29, 640 nM; in the test with Saos-2, 1300 nM; in test [1], 800 ± 400 nM.

`CN(C)Cc1cccc(-c2ccnc(Nc3cccc([N+](=O)[O-])c3)n2)c1` [Compound 71, [4-(3-Dimethylaminomethyl-phenyl)-pyrimidin-2-yl]-(3-nitro-phenyl)-amine]: the IC50 on CDK1/cyclin B was 10 nM; on CDK2/cyclin A, 30 nM; at CDK2/cyclin E, 10 nM; on CDK4/cyclin D1, 200 nM; at CDK7/cyclin H, 30 nM; on CDK9/cyclin T1, 3 nM. On GSK3β, the IC50 stood at 30 nM.

Regarding `Cc1ccc(Nc2nccc(-c3cccc(CN4CCCCC4CO)c3)n2)cc1[N+](=O)[O-]` (centres unmarked) [Compound 108, (1-{3-[2-(4-Methyl-3-nitro-phenylamino)-pyrimidin-4-yl]-benzyl}-piperidin-2-yl)-methanol], the IC50 on CDK1/cyclin B is 1100 nM; on CDK2/cyclin A, 440 nM; at CDK2/cyclin E it was 60 nM; on CDK4/cyclin D1, 1700 nM; at CDK7/cyclin H, 30 nM; on CDK9/cyclin T1, under 1 nM. For the same molecule, the IC50 at GSK3β came out at 20 nM.

`Oc1cccc(Nc2nccc(-c3cccc(CNCc4ccccc4)c3)n2)c1` [Compound 28, 3-{4-[3-(Benzylamino-methyl)-phenyl]-pyrimidin-2-ylamino}-phenol]: the IC50 on CDK1/cyclin B is 2100 nM; on CDK2/cyclin A, 1000 nM; at CDK2/cyclin E it was 860 nM; at CDK4/cyclin D1, 2600 nM; at CDK7/cyclin H, 2600 nM; at CDK9/cyclin T1 it was 35 nM. Also, the IC50 on GSK3β came out at 120 nM; in the test with A549, 8000 nM; in the test with HT29, 16000 nM; in the test on Saos-2, 7100 nM; in [1] it was 10400 ± 4900 nM.

Take `CCN(Cc1cccc(-c2ccnc(Nc3ccc(OC)nc3)n2)c1)C(C)C` [Compound 53, (4-{3-[(Ethyl-isopropyl-amino)-methyl]-phenyl}-pyrimidin-2-yl)-(6-methoxy-pyridin-3-yl)-amine]: the IC50 on CDK1/cyclin B is 3900 nM; at CDK2/cyclin A, 3400 nM; at CDK2/cyclin E it was 350 nM; on CDK4/cyclin D1, 1100 nM; at CDK7/cyclin H, 2500 nM; on CDK9/cyclin T1, 28 nM. Also, the IC50 at GSK3β came to 51 nM; with A549, 2200 nM; with HT29, 850 nM; in the test with Saos-2, 3200 nM; in test [1] it was 2100 ± 1200 nM.

On to `O=[N+]([O-])c1cccc(Nc2nccc(-c3cccc(CN4CCCCC4CO)c3)n2)c1` (centres unmarked) [Compound 79, (1-{3-[2-(3-Nitro-phenylamino)-pyrimidin-4-yl]-benzyl}-piperidin-2-yl)-methanol], for which the IC50 at CDK1/cyclin B was 150 nM; on CDK2/cyclin A it was 150 nM; at CDK2/cyclin E, under 1 nM; on CDK4/cyclin D1, 540 nM; at CDK7/cyclin H, 50 nM; on CDK9/cyclin T1, 10 nM. Also, the IC50 at GSK3β worked out at 20 nM; with A549, 330 nM; with HT29, 200 nM; in the test with Saos-2 it was 620 nM; in [1], 400 ± 200 nM.

`CCN(C(C)=O)c1cccc(-c2ccnc(Nc3ccc(OC)cc3)n2)c1` [Compound 23, N-Ethyl-N-{3-[2-(4-methoxy-phenylamino)-pyrimidin-4-yl]-phenyl}-acetamide]: the IC50 on CDK1/cyclin B came out at 3600 nM; at CDK2/cyclin A, 1200 nM; on CDK2/cyclin E, 1100 nM; on CDK4/cyclin D1, 7600 nM; on CDK7/cyclin H it was 4300 nM; at CDK9/cyclin T1, 400 nM. Moreover, the IC50 on GSK3β was found to be 120 nM; in the test on A549 it was 12900 nM; in the test with HT29 it was 3400 nM; in the test with Saos-2, 23000 nM; in test [1], 13100 ± 9800 nM.

Turning to `COc1ccc(Nc2nccc(-c3cccc(Cn4ccnc4)c3)n2)cn1` [Compound 59, [4-(3-Imidazol-1-ylmethyl-phenyl)-pyrimidin-2-yl]-(6-methoxy-pyridin-3-yl)-amine], the IC50 at CDK1/cyclin B was found to be 120 nM; at CDK2/cyclin A it was 60 nM; on CDK2/cyclin E, 1300 nM; on CDK4/cyclin D1, 3800 nM; on CDK7/cyclin H it was 500 nM; at CDK9/cyclin T1 it was 40 nM. The IC50 at GSK3β is 70 nM.
